Where “and” joins values, the source holds several entries; their conditions need not be identical. Identical values can stand only once.
Tests used:
human rChAT [1] = target: T1, human rChAT (Homo sapiens, UniProt P28329); assay: In vitro ChAT activity inhibition fluorometric assay and kinetic studies; format: biochemical; conditions: for inhibition at 100 µM: read-out: ChAT % IR (inhibition rate)
T1 construct: made in house; host or cells: E. coli BL21 Rosetta2
T1 sequence (P28329 1-630 isoform P28329-3): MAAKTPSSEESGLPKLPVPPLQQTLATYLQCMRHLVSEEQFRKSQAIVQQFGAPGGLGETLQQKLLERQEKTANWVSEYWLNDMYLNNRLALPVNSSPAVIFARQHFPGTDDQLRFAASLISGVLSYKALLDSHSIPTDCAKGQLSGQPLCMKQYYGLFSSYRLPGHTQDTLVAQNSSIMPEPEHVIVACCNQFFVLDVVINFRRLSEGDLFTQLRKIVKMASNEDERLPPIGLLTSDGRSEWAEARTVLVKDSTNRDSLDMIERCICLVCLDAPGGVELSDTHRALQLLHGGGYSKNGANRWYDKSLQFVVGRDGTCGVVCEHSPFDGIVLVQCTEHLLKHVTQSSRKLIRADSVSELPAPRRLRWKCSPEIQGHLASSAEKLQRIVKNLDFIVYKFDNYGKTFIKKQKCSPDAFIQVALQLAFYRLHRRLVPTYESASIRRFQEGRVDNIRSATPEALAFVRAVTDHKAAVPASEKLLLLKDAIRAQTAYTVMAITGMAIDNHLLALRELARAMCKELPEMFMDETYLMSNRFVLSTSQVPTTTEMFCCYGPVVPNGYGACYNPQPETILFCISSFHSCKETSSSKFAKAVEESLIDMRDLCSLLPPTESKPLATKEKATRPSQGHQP
Method: ChAT activity was measured using our newly developed fluorometric assay, using human recombinant ChAT (rChAT) protein. The reagents, choline chloride, acetyl coenzyme-A (ACoA, A2181) and 7-Diethylamino-3-(4-maleimidophenyl)-4-methylcoumarin (CPM) were purchased from Sigma-Aldrich (St. Louis, MO, USA).
The ChAT assay could be run in either 96-well or 384-well plates. For 96-well plates, 50 μL/well of 0.212 µg/ml (final concentration) of the recombinant ChAT was incubated with 100 μM different Asinex compounds (50 μL/well) for 10–30 minutes at room temperature in dilution buffer (10 mM Tris-HCl, pH 7.4, 150 mM NaCl, 1.0 mM EDTA, 0.05% (v/v) Triton X-100). Then, 50 µL of a cocktail-A [dilution buffer containing choline chloride (final concentration 150 µM), ACoA (final concentration 13.3 µM) and CPM (final concentration 15 µM)] was added to each well. Immediately after adding the cocktail-A, the changes in fluorescence was monitored kinetically at 479 nm after exciting at 390 nm at 1–2 minute intervals for 15–20 minutes using a microplate spectrophotometer reader (Infinite M1000, Tecan).
Each Asinex compounds were run in triplicates. On each 96-wells plate, several enzyme wells without inhibitor were also included during measurements as control and for estimating the inhibition level. Negative controls were wells without enzyme. The percentage inhibition for each Asinex compound was calculated based on the enzyme control value as a reference (100% activity). The compounds showing over 50% inhibition of enzyme activity were selected for further kinetic studies.
(§1) For kinetic studies, a similar protocol as inhibition assay was followed; a dilution series of five different concentrations ranging from 10^−6 to 10^−9 M were prepared for each selected Asinex compounds. For ChAT, the A-CoA was kept constant at 10 μM (final) but the concentration of choline chloride varied between 320–10 μM. For BuChE, BTC was used as the substrate in the concentrations ranging from 0.0625 to 2 mM. For AChE, ATC was used as the substrate in the concentrations ranging from 0.0312 to 1 mM. Each compound concentration was measured in duplicates. The rate of enzyme activity (as ∆OD/hr kinetic data) was calculated and processed using the GraphPad Prism 7 analysis software. The inhibitory constant (Ki) values were determined from the dose-response curve and the half-maximal inhibitory concentration (IC50) values were calculated by plotting the percentage enzyme activity vs. the log of the Asinex compound concentrations and fitting the data using the nonlinear regression Enzyme Kinetics-Inhibition function.
The Michaelis-Menten constant (Km) and maximal velocity (Vmax) values were calculated from substrate-velocity curve after fitting the data with non-linear regression Michaelis-Menten kinetic function. The Km and Vmax values were further used to plot the Lineweaver-Burk plots; the plots were fitted using linear regression function.

recombinant human AChE = target: T2, recombinant human AChE (Homo sapiens, UniProt P22303); assay: Modified Ellman's colorimetric assay for AChE and kinetic studies; format: biochemical; conditions: for Ki / IC50: mean of two experiments; for IC50: substrate ATC 0.5 mM; for inhibition at 200 µM: read-out: AChE % IR (inhibition rate)
T2 construct: purchased Sigma C1682
T2 sequence (P22303 32-614): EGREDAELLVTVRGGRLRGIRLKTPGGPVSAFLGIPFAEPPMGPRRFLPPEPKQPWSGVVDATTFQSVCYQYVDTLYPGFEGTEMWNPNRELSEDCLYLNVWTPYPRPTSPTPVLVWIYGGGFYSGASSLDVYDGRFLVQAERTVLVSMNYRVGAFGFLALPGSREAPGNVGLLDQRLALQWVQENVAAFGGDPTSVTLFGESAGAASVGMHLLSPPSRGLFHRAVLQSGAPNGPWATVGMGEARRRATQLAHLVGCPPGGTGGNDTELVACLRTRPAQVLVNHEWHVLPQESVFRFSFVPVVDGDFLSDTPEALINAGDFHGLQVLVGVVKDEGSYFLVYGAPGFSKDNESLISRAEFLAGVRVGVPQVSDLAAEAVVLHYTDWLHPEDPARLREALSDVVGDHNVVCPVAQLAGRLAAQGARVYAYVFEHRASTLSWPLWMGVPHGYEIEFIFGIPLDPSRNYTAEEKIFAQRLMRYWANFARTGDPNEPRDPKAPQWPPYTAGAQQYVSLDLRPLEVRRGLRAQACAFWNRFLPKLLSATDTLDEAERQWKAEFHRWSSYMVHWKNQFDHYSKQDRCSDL
Text: (§2) A modified version of Ellman’s colorimetric assay[16],[17] was adapted to a high throughput assay for the enzymatic activity of BuChE and AChE. The reagent, butyrylthiocholine iodide (BTC), acetylthiocholine iodide (ATC), 5,5′-dithiobis (2-nitrobenzoic acid) (DTNB) were purchased from Sigma-Aldrich (St. Louis, MO, USA). The modified assay details are as previously described[34],[35]. The main modification concerned with the high throughput adaptation of the assay for use in 384-well plates. Briefly, 25 μL/well of a 1:450 diluted solution of a pooled human plasma and 1:768 diluted (3.5 ng/ml final concentration) purified recombinant human AChE protein (Sigma, Cat no. C1682) was used for measurement of BuChE and AChE activity, respectively. In the initial in vitro screening step, the wells were pre-incubated with 25 μL/wells of different Asinex compounds for 10–30 minutes at room temperature. The concentration of the compounds working solution was 3X to give a final concentration of 200 μM in a final volume of 75 μL in each well. The stock concentration of the compounds were prepared in 100% DMSO. The stock concentration was chosen usually at 10 mM, allowing the final DMSO concentration in the wells to be less than 4%. Finally, 25 μL of a cocktail mix prepared in Na/K phosphate buffer, containing DTNB (final concentration 0.4 mM) and BTC, (final concentration 1 mM) or ATC (final concentration 0.5 mM) was added to each well and the changes in absorbance was monitored at 412 nm wavelength for 15–20 minutes with one-minute interval, using a microplate spectrophotometer reader (Infinite M1000, Tecan). The rate of the enzyme activity was determined from the linear part of the kinetic reaction curves as ∆OD/time.
as §1

plasma BuChE = target: T3, plasma BuChE (Homo sapiens, UniProt P06276); assay: Modified Ellman's colorimetric assay for BuChE (pooled human plasma) and kinetic studies; format: biochemical; conditions: for inhibition at 200 µM: read-out: BuChE % IR (inhibition rate)
T3 construct: 1:450 diluted solution of a pooled human plasma; from tissue; host or cells: pooled human plasma
T3 sequence (P06276 29-602): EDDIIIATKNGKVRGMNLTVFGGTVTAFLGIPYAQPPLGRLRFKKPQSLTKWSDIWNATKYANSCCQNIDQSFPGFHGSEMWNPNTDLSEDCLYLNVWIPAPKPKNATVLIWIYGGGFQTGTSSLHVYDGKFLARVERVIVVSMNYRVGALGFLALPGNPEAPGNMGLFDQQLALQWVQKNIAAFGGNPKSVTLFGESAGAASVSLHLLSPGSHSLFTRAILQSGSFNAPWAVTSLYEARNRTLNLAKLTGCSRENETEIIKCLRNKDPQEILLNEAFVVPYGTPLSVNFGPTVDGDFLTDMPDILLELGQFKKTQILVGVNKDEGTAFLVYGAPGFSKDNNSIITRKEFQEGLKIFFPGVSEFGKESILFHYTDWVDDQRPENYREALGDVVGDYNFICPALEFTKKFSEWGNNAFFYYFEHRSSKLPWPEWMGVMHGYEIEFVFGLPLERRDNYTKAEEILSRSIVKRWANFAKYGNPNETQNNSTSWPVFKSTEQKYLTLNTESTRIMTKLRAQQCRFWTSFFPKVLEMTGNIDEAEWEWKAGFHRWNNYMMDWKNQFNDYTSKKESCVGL
Text: as §2, §1

HEK 293 cells = assay: MTT cell viability assay; format: cell-based; conditions: overnight, control cells 100%, mean ± SD of 3 readings
Method: Finally, to assess the prospective of the identified compounds for further development into ChAT ligands, we assessed the compounds active against ChAT, AChE and BuChE, for their cellular toxicity on human embryonic kidney (HEK 293) cells using the cell viability 3-(4,5-dimethylthiazol-2-yl)-2,5-diphenyltetrazolium bromide (MTT) assay. All compounds were evaluated at 10 and 50 µM concentrations. The cell viability data is given in Table 4 (also represented as a bar chart in Fig. 9).
The in vitro cellular toxicity of the active compounds was evaluated using MTT assay. Briefly, Human embryonic kidney epithelial (HEK-293) cells cultured at 37 °C in a humidified environment with 5% CO2 in Dulbecco’s Modified Eagle’s medium (DMEM) in 96 well plate to obtain 70–80% confluency. Further, the cells were incubated overnight at 37 °C with 10 µM and 50 µM compounds in triplicate. Cells treated with 1% DMSO were used as controls. At the end of the treatment (12 h), 10 μL of 12 mM MTT dissolved in Phosphate buffer saline pH 7.4, was added to each well and incubated for an additional 2 h at 37 °C. The media was then removed from the plate and 100 µL of DMSO was added to dissolve the violet formazan crystals. Finally, the absorbance was measured at 540 nm with a reference wavelength of 630 nm on Tecan spectrophotometer with shaking before the reading. The percentage viability was calculated taking 1% DMSO control as 100 percent and presented as mean ± SD.

ChAT = system: ChAT; parameters: method as in PMID 27507101; conditions: as previously reported by our group ref 26; cited from earlier work
human rChAT [2] = target: T1, human rChAT; assay: In vitro ChAT activity inhibition fluorometric assay and kinetic studies; format: biochemical; conditions: mean ± SEM of two experiments
[3] = 100 µM compound, compared to control, mean of three experiments in triplicate
[4] = Lineweaver-Burk plot and nonlinear regression fit
[5] = 200 µM compound, compared to control, mean of three experiments in triplicate
[6] = substrate BTC 1 mM, mean of two experiments
[7] = 200 µM compound, compared to control, mean of three experiments in triplicate, 200 µM

| SMILES | inhibition at 100 µM (human rChAT [1]; [3]) [%] | Ki (recombinant human AChE) [µM] | IC50 (recombinant human AChE) | inhibition at 200 µM (plasma BuChE; [5]) [%] | % of cell proliferation (HEK 293 cells; 10 µM) [%] | % of cell proliferation (HEK 293 cells; 50 µM) [%] | inhibition at 200 µM (recombinant human AChE; [5]) [%] | Ki (plasma BuChE; mean of two experiments) [µM] | IC50 (plasma BuChE; [6]) | also measured |
| --- | --- | --- | --- | --- | --- | --- | --- | --- | --- | --- |
| O=C(NCc1ccc(CN2CCCCC2)cc1)c1nc(-c2ccc(C(F)(F)F)cc2)no1 [Compound C5] | 0 | 23.7 | ~6.3 µM and 6.3 µM | > 50 | 78.9 ± 3.3 | 36.1 ± 2.4 | – | – | – | mode of inhibition of AChE (recombinant human AChE; [4]): non-competitive mode of inhibition; BuChE IC50 (plasma BuChE; [6]): could not be calculated due to lack of complete inhibition even at the highest tested concentration of 300 µM |
| CCN(CC)C(=O)c1cccc(Nc2ccc(-c3ccccc3OC)nn2)c1 [Compound D3] | 0 | 177 | 251 µM | 20.7 | 79.2 ± 2.5 | 66.2 ± 4.0 | > 50 | – | – | – |
| CCn1c(CNC(=O)COc2ccccc2F)cc2ccccc21 [Compound C2] | 0 | – | – | – | 87.7 ± 5.0 | 76.2 ± 7.6 | 0 | 59.6 | ~365 µM and 365 µM | mode of inhibition of BuChE (plasma BuChE; Lineweaver-Burk plot and nonlinear regression analysis): competitive mode of inhibition |
| COc1cc(CN2CCN(Cc3ccccc3Cl)CC2)c([N+](=O)[O-])cc1OC [Compound D4] | 3.5 | 141 | 146 µM | 18.2 | 84.0 ± 3.8 | 68.1 ± 1.4 | – | – | – | – |
| CCn1c(CNC(=O)COc2ccc(F)cc2)cc2ccccc21 [Compound C4] | 0 | – | – | > 50 | 82.4 ± 4.5 | 84.0 ± 10.0 | 4.9 | 59.4 | 528 µM | – |
| C[N+](C)(C)CCC(=O)c1cccc2ccccc12.[I-] [α-NETA, 2-(alpha-naphthoyl)ethyltrimethylammonium iodide, reference compound] | 93 | – | – | – | – | – | – | – | – | ChAT % IR (inhibition rate) (human rChAT [1]; 100 µM compound, compared to control, mean of three experiments in triplicate, 100 µM): 93.7%; IC50 (ChAT): 100 nM |
| O=C(NC1CCCC1)c1ccc(CN2CCN(Cc3ccccc3)CC2)cc1 [Compound A2] | 6.9 | – | – | > 50 | 62.1 ± 4.0 | 72.2 ± 13.1 | 0 | 84.9 | 527 µM | – |
| CCc1ccc2[nH]c3nc(SCCC(=O)N4CCCCCC4)nnc3c2c1 [Compound B1] | – | – | – | 15 | – | – | 9 | – | – | mode of inhibition of human rChAT (human rChAT [1]; [4]): mixed-model inhibition; Vmax of rChAT (human rChAT [1]; inhibitor 0.4 µM, mean ± SEM of two experiments): 247.3 ± 17.8 µM/min; Ki (human rChAT [1]; mean of two experiments): ~9.4 µM and 9.4 µM; IC50 (human rChAT [1]; substrate concentrations 20 to 80 µM, mean of two experiments): ~7 µM and 7 µM; AChE % IR (inhibition rate) (recombinant human AChE; [7]): 9.1%; BuChE % IR (inhibition rate) (plasma BuChE; [7]): 14.8%; Vmax of rChAT (human rChAT [2]; inhibitor 2.0 µM): 189.6 ± 17.3 µM/min; Vmax of rChAT (human rChAT [2]; inhibitor 10.0 µM): 154.3 ± 13.4 µM/min; Vmax of rChAT (human rChAT [2]; inhibitor 50.0 µM): 73.5 ± 9.7 µM/min; Vmax of rChAT (human rChAT [2]; inhibitor 250.0 µM): 54.9 ± 6.8 µM/min |

— publication PMC5701137, “Discovery of novel choline acetyltransferase inhibitors using structure-based virtual screening” (Scientific Reports, 2017)
